Experimental data from ChEMBL document CHEMBL6121047, “Design, Synthesis, and Evaluation of Selective PDE4 Inhibitors for the Therapy of Pulmonary Injury” (J Med Chem, 2025).
Active and inactive are the calls of the source. The rule behind the calls is not given here.

Assays:
[1] = target: 3',5'-cyclic-AMP phosphodiesterase 4B (Homo sapiens, UniProt Q07343); test: Inhibition of recombinant full length PDE4B (unknown origin) using FAM-cAMP as substrate at 1 uM preincubated with compound for compound for 15 mins followed by substrate addition and measured after 30 mins by Envision multilabel reader analysis relative to control; conditions: time 45.0 min
Sequence of 3',5'-cyclic-AMP phosphodiesterase 4B (Q07343 whole entry): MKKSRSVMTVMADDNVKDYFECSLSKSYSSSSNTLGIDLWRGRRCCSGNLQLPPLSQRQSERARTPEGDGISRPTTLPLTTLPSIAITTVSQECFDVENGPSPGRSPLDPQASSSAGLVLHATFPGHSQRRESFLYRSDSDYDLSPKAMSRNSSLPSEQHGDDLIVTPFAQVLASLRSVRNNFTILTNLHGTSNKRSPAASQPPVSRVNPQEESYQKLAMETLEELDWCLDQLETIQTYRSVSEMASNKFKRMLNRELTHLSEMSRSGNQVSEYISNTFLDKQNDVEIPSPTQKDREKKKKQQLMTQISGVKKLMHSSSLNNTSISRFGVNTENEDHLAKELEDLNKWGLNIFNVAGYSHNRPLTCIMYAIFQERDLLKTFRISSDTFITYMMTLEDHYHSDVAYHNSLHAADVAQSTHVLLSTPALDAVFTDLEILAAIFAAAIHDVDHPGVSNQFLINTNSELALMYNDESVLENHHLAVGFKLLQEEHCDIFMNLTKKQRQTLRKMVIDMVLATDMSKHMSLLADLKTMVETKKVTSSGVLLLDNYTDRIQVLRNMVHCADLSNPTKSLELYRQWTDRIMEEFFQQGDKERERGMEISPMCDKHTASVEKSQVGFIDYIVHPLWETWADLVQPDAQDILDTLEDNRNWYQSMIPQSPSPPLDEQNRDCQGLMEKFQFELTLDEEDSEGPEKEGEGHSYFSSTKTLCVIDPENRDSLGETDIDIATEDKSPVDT

[2] = system: RAW264.7; test: Cytotoxicity against mouse RAW264.7 cells assessed as reduction in cell viability incubated for 24 hrs by CCK-8 assay; format: toxicity, cell-based; conditions: raw264.7, 24 h
[3] = system: HepG2; test: Cytotoxicity against human HepG2 cells assessed as reduction in cell viability incubated for 24 hrs by CCK-8 assay; format: toxicity, cell-based; conditions: hepg2, 24 h
[4] = system: HEK-293T; test: Cytotoxicity against human HEK293T cells assessed as reduction in cell viability incubated for 24 hrs by CCK-8 assay; format: toxicity, cell-based; set-up: concentration or dose not given beside the values
[5] = Inhibition of PDE3 (unknown origin); set-up: species or system Homo sapiens
[6] = target: Phosphodiesterase 4 (Homo sapiens, UniProt P27815+Q08499+Q07343+Q08493); test: Inhibition of PDE4 (unknown origin); format: protein assay
[7] = system: Mus musculus; test: Anti-inflammatory activity against LPS-induced acute lung injury male BALB/c mouse model assessed as restoration of alveolar septa in lung at 4 mg/kg administered once a day via gavage for 7 days followed by LPS stimulation and measured after 24 hrs by H and E staining based microscopic analysis; format: functional, organism-based; conditions: time 192.0 hrs
[8] = system: Mus musculus; test: Anti-inflammatory activity against LPS-induced acute lung injury male BALB/c mouse model assessed as restoration of alveolar cavities in lung at 4 mg/kg administered once a day via gavage for 7 days followed by LPS stimulation and measured after 24 hrs by H and E staining based microscopic analysis; format: functional, organism-based; conditions: time 192.0 hrs
[9] = system: Mus musculus; test: Anti-inflammatory activity against LPS-induced acute lung injury male BALB/c mouse model assessed as relaxation of alveolar in lung at 4 mg/kg administered once a day via gavage for 7 days followed by LPS stimulation and measured after 24 hrs by H and E staining based microscopic analysis; format: functional, organism-based; conditions: time 192.0 hrs
[10] = system: Mus musculus; test: Anti-inflammatory activity against LPS-induced acute lung injury male BALB/c mouse model assessed as enlarged bronchiole tubes in lung at 4 mg/kg administered once a day via gavage for 7 days followed by LPS stimulation and measured after 24 hrs by H and E staining based microscopic analysis; format: functional, organism-based; conditions: time 192.0 hrs
[11] = system: Mus musculus; test: Antifibrotic activity against LPS-induced acute lung injury male BALB/c mouse model assessed as decrease in collagen deposition at 4 mg/kg administered once a day via gavage for 7 days followed by LPS stimulation and measured after 24 hrs by masson staining based microscopic analysis; format: functional, organism-based; conditions: time 192.0 hrs
[12] = system: Mus musculus; test: Anti-inflammatory activity against cigarette-smoke/LPS-induced COPD male C57BL/6 mouse model assessed as reduction in TNF-alpha level in BALF at 5 mg/kg pretreated with cigarette smoke exposure for 21 weeks with subsequent LPS induction twice on the first and 15th day followed by compound administration every day via gavage for 4 weeks; format: functional, organism-based
[13] = system: Mus musculus; test: Anti-inflammatory activity against cigarette-smoke/LPS-induced COPD male C57BL/6 mouse model assessed as reduction in IL-6 level in BALF at 5 mg/kg pretreated with cigarette smoke exposure for 21 weeks with subsequent LPS induction twice on the first and 15th day followed by compound administration every day via gavage for 4 weeks; format: functional, organism-based
[14] = system: Mus musculus; test: Anti-inflammatory activity against cigarette-smoke/LPS-induced COPD male C57BL/6 mouse model assessed as reduction in MMP9 level in BALF at 5 mg/kg pretreated with cigarette smoke exposure for 21 weeks with subsequent LPS induction twice on the first and 15th day followed by compound administration every day via gavage for 4 weeks; format: functional, organism-based
[15] = system: Mus musculus; test: Anti-inflammatory activity against cigarette-smoke/LPS-induced COPD male C57BL/6 mouse model assessed as reduction in bronchiole thickness at 5 mg/kg pretreated with cigarette smoke exposure for 21 weeks with subsequent LPS induction twice on the first and 15th day followed by compound administration every day via gavage for 4 weeks by H and E staining based microscopic analysis; format: functional, organism-based
[16] = system: Mus musculus; test: Anti-inflammatory activity against cigarette-smoke/LPS-induced COPD male C57BL/6 mouse model assessed as decrease in collagen formation at 5 mg/kg pretreated with cigarette smoke exposure for 21 weeks with subsequent LPS induction twice on the first and 15th day followed by compound administration every day via gavage for 4 weeks by masson staining based microscopic analysis; format: functional, organism-based

Structure (SMILES): O=C(Nc1ccccc1)c1cccc2[nH]c(-c3ccc(OC(F)F)c(OCC4CC4)c3)nc12
- inhibition [1]: 83.8%

Structure (SMILES): O=C(NCc1cc(F)ccc1F)c1cccc2[nH]c(-c3ccc(OC(F)F)c(OCC4CC4)c3)nc12
- inhibition [1]: 88.8%

Structure (SMILES): O=C(NCc1ccccn1)c1cccc2[nH]c(-c3ccc(OC(F)F)c(OCC4CC4)c3)nc12
- inhibition [1]: 93.9%
- Activity [2]: Non-toxic

Structure (SMILES): O=C(Nc1cccnc1)c1cccc2[nH]c(-c3ccc(OC(F)F)c(OCC4CC4)c3)nc12
- inhibition [1]: 90.1%
- Activity [3]: Non-toxic
- Activity [2]: Non-toxic

Structure (SMILES): O=C(ON1C(=O)CCC1=O)c1cccc2[nH]c(-c3ccc(OC(F)F)c(OCC4CC4)c3)nc12
- inhibition [1]: 91.5%

Structure (SMILES): N#Cc1ccc(NNC(=O)c2ccc3[nH]c(-c4ccc(OC(F)F)c(OCC5CC5)c4)nc3c2)cc1
- inhibition [1]: 76.2%

Structure (SMILES): O=C(NCc1cc(F)cc(F)c1)c1cccc2[nH]c(-c3ccc(OC(F)F)c(OCC4CC4)c3)nc12
- inhibition [1]: 82.4%

Structure (SMILES): O=C(Nc1ccccn1)c1cccc2[nH]c(-c3ccc(OC(F)F)c(OCC4CC4)c3)nc12
- inhibition [1]: 81.6%

Structure (SMILES): O=C(NCc1ccc(F)c(F)c1)c1cccc2[nH]c(-c3ccc(OC(F)F)c(OCC4CC4)c3)nc12
- Activity [4]: > 70%
- inhibition [1]: 90.6%
- Activity [2]: Non-toxic

Structure (SMILES): Cn1cc(NC(=O)c2cccc3[nH]c(-c4ccc(OC(F)F)c(OCC5CC5)c4)nc23)cn1
- inhibition [1]: 93.6%
- Activity [3]: Non-toxic
- Activity [2]: Non-toxic

Structure (SMILES): O=C(NCc1ncccn1)c1ccc2[nH]c(-c3ccc(OC(F)F)c(OCC4CC4)c3)nc2c1
- inhibition [1]: 62.3%

Structure (SMILES): O=C(NCC1CCOCC1)c1cccc2[nH]c(-c3ccc(OC(F)F)c(OCC4CC4)c3)nc12
- inhibition [1]: 94.6%

Structure (SMILES): O=C(Nc1ccncc1)c1cccc2[nH]c(-c3ccc(OC(F)F)c(OCC4CC4)c3)nc12
- inhibition [1]: 65.6%

Structure (SMILES): COc1ccc(-c2nc3cc(C(=O)NCc4ncccn4)ccc3[nH]2)cc1OCC1CC1
- inhibition [1]: 42.5%

Structure (SMILES): O=C(NCc1ccc(F)cc1F)c1cccc2[nH]c(-c3ccc(OC(F)F)c(OCC4CC4)c3)nc12
- Activity [4]: > 70%
- inhibition [1]: 94%
- Activity [2]: Non-toxic

Structure (SMILES): O=C(Nc1nccs1)c1cccc2[nH]c(-c3ccc(OC(F)F)c(OC(F)F)c3)nc12
- inhibition [1]: 68%

Structure (SMILES): O=C(NCc1c(F)cc(F)cc1F)c1cccc2[nH]c(-c3ccc(OC(F)F)c(OCC4CC4)c3)nc12
- inhibition [1]: 88.6%

Structure (SMILES): O=C(NCc1ccc2ccccc2c1)c1cccc2[nH]c(-c3ccc(OC(F)F)c(OCC4CC4)c3)nc12
- inhibition [1]: 90.1%
- Activity [3]: Non-toxic
- Activity [2]: Non-toxic

Structure (SMILES): O=C(NCc1ncccn1)c1cccc2[nH]c(-c3ccc(OC(F)F)c(OCC4CC4)c3)nc12
- inhibition [1]: 95.5%

Structure (SMILES): O=S(=O)(c1ccccc1)n1cc(-c2ccc3[nH]c(-c4ccc(OC(F)F)c(OCC5CC5)c4)nc3c2)c2ccccc21
- inhibition [1]: 25.8%

Structure (SMILES): O=C(NCc1c(F)cccc1F)c1cccc2[nH]c(-c3ccc(OC(F)F)c(OCC4CC4)c3)nc12
- Activity [4]: > 70%
- inhibition [1]: 94.4%
- Activity [2]: Non-toxic

Structure (SMILES): O=C(NCc1cccc(F)c1F)c1cccc2[nH]c(-c3ccc(OC(F)F)c(OCC4CC4)c3)nc12
- Activity [4]: > 70%
- inhibition [1]: 91.9%
- Activity [2]: Non-toxic

Structure (SMILES): COc1ccc(CNC(=O)c2cccc3[nH]c(-c4ccc(OC(F)F)c(OCC5CC5)c4)nc23)cn1
- inhibition [1]: 93.4%
- Activity [2]: Non-toxic

Structure (SMILES): O=C(NCc1ccc(F)cc1F)c1ccc2[nH]c(-c3ccc(OC(F)F)c(OCC4CC4)c3)nc2c1
- inhibition [1]: 24.8%

Structure (SMILES): O=C(Nc1ccc2[nH]ccc2c1)c1cccc2[nH]c(-c3ccc(OC(F)F)c(OCC4CC4)c3)nc12
- inhibition [1]: 93.5%
- Activity [3]: Non-toxic
- Activity [2]: Non-toxic

Structure (SMILES): O=C(NCc1ccccc1)c1cccc2[nH]c(-c3ccc(OC(F)F)c(OCC4CC4)c3)nc12
- Activity [4]: > 70%
- inhibition [1]: 92.2%
- Activity [2]: Non-toxic

Structure (SMILES): COc1ccc(-c2nc3cc(C(=O)Nc4ccc5ncsc5c4)ccc3[nH]2)cc1OCC1CC1
- inhibition [1]: 49.2%

Structure (SMILES): O=C(NCc1ccccc1F)c1cccc2[nH]c(-c3ccc(OC(F)F)c(OCC4CC4)c3)nc12
- inhibition [1]: 85.2%

Structure (SMILES): COc1cc2c(cc1OC)-c1c/c(=N\c3c(C)cc(C)cc3C)n(CCNC(N)=O)c(=O)n1CC2 [ENSIFENTRINE]
- IC50 [5]: 0.4 nM
- IC50 [6]: 1479 nM

Structure (SMILES): COc1ccc(-c2nc3cc(C(=O)NCc4ccc(F)cc4F)ccc3[nH]2)cc1OCC1CC1
- inhibition [1]: 23.3%

Structure (SMILES): O=C(O)c1ccc(NNC(=O)c2cccc3[nH]c(-c4ccc(OC(F)F)c(OCC5CC5)c4)nc23)cc1
- inhibition [1]: 96.2%
- Activity [3]: Non-toxic
- Activity [2]: Non-toxic

Structure (SMILES): O=C(Nc1nc2ccccc2s1)c1cccc2[nH]c(-c3ccc(OC(F)F)c(OCC4CC4)c3)nc12
- inhibition [1]: 53.1%

Structure (SMILES): O=C(Nc1ccc2ncsc2c1)c1cccc2[nH]c(-c3ccc(OC(F)F)c(OCC4CC4)c3)nc12
- inhibition [1]: 79.3%

Structure (SMILES): FC(F)Oc1ccc(-c2nc3cc(-c4ccncc4)ccc3[nH]2)cc1OCC1CC1
- inhibition [1]: 81.4%

Structure (SMILES): O=C(Nc1ccc2ncsc2c1)c1cccc2[nH]c(-c3ccc(OC(F)F)c(OC(F)F)c3)nc12
- inhibition [1]: 70.2%

Structure (SMILES): O=C(NCc1c(F)cc(F)cc1F)c1cccc2[nH]c(-c3ccc(OC(F)F)c(OC(F)F)c3)nc12
- inhibition [1]: 73.3%

Structure (SMILES): Cn1ccc(NC(=O)c2cccc3[nH]c(-c4ccc(OC(F)F)c(OCC5CC5)c4)nc23)n1
- inhibition [1]: 94.1%

Structure (SMILES): O=C(NCc1cnccn1)c1cccc2[nH]c(-c3ccc(OC(F)F)c(OCC4CC4)c3)nc12
- inhibition [1]: 93.3%

Structure (SMILES): O=C(NCc1cccnc1)c1cccc2[nH]c(-c3ccc(OC(F)F)c(OCC4CC4)c3)nc12
- inhibition [1]: 91.1%
- Activity [2]: Non-toxic

Structure (SMILES): COc1ccc(-c2ccc3[nH]c(-c4ccc(OC(F)F)c(OCC5CC5)c4)nc3c2)cc1OC
- inhibition [1]: 80.9%

Structure (SMILES): O=C(ON1C(=O)CCC1=O)c1ccc2[nH]c(-c3ccc(OC(F)F)c(OCC4CC4)c3)nc2c1
- inhibition [1]: 62.2%

Structure (SMILES): Cc1nc2ccc(NC(=O)c3cccc4[nH]c(-c5ccc(OC(F)F)c(OCC6CC6)c5)nc34)cc2s1
- inhibition [1]: 56.8%

Structure (SMILES): O=C(Nc1ccncc1)c1ccc2[nH]c(-c3ccc(OC(F)F)c(OCC4CC4)c3)nc2c1
- inhibition [1]: 62.3%

Structure (SMILES): O=C(Nc1c(Cl)cncc1Cl)c1ccc(OC(F)F)c(OCC2CC2)c1
- Activity [7]: Active
- Activity [8]: Active
- Activity [9]: Active
- Activity [10]: Active
- Activity [11]: Active
- Activity [12]: Active
- Activity [13]: Active
- Activity [14]: Active
- Activity [15]: Active
- Activity [16]: Active
